Holding throughout (assay type): in vivo
Test [1] deals with Candidatus ‘Liberibacter asiaticus’. The settings on record: HLB infected Citrus sinensis treated for one year, FIG. 4A.
Test [2] has as its system Alternaria solani. The test can be described thus: Control of disease in tomato plants inoculated with Alternaria solani. To be noted: 1 μM spray every 15 days for 3 months; for percentage of mortality due to disease: mortality at 3 months. The method, then: (§1) In order to evaluate the effect of the brassinosteroid analogue (25R)-3-hydroxy-C-homo-11-oxa-5-espirostan-12-one and a natural brassinosteroid (brassinolide), on the control of other plant diseases, experiments were conducted with tobacco and tomato plants inoculated with Phytophthora parasitica and Alternaria solani, respectively. Both the natural brassinosteroid as the analogue were applied by spraying at a concentration of 1 μM every 15 days for 3 months. The mortality rate was determined at 3 months. […] Hundred plants were used for each treatment. Untreated plants were used as controls.

Test [3] concerns Candidatus ‘Liberibacter asiaticus’. To be noted: adult plants, natural conditions, 20 mM spray every 15 days, one year, FIG. 3B.
For test [4] the test system is unchanged. The settings on record: 1 μM spray twice a month, area with HLB plants and Diaphorina citri, FIG. 7.
The test system of test [5] is genes related to the natural defense mechanism of plants against diseases. The test can be described thus: Identification of new defense genes activated in treated citrus plants by SuperSAGE. The settings on record: Citrus sinensis, 20 μM spray, leaves 1-48 hours, FIG. 2. As for the experimental part:
Citrus plants (Citrus sinensis) were treated with the brassinosteroid analogue (25R)-3-hydroxy-C-homo-11-oxa-5-espirostan-12-one at 20 μM. Leaves from five plants were collected at 1, 5, 10, 24 and 48 hours after spray application. Total RNA was extracted from leaves using the RNeasy kit (Qiagen, Valencia, Calif.) according to manufacturer's instructions. The cDNAs were synthesized by using biotinylated oligo-dT primer and reverse transcription kit SuperScript III (Invitrogen, Carlsbad, Calif.) according to manufacturer's instructions. Samples of five citrus plants treated with water and collected during the times listed above were used as control. The identification and characterization of new genes was performed by the construction of two cDNA libraries by the technique of SuperSAGE (Matsumura et al. (2003) PNAS 100: 15718-15723). The control library was the mixture of leaves of plants treated with water at different times and target sample was the mixture of citrus plant leaves treated with the analogue at different times. The new genes related to plant response to the HLB, activated by application of brassinosteroid analogue, were isolated, sequenced and analyzed.

Test [6] concerns Phytophthora parasitica. Description: Control of disease in tobacco plants inoculated with Phytophthora parasitica. The settings on record: 1 μM spray every 15 days for 3 months; for percentage of mortality due to disease: mortality at 3 months. As for the experimental part: as §1
Test [7] relates to Candidatus ‘Liberibacter asiaticus’. The settings on record: for effect on bacteria levels during the evaluation period: 1 μM spray every 15 days for 6 months, 10 HLB infected citrus plants, FIG. 5.
Test [8] relates to genes related to defense against diseases of citrus plants. The test can be described thus: Relative expression of defense-related genes in citrus plants by real-time quantitative PCR. The settings on record: Citrus sinensis, 20 μM spray. As for the experimental part:
Citrus plants (Citrus sinensis) were treated with the brassinosteroid analogue (25R)-3-hydroxy-C-homo-11-oxa-5-espirostan-12-one at 20 μM (Iglesias et al. (1998) Synthetic Communications 28: 75-81). Leaves from five plants were collected at 0, 1, 5, 10, 24 and 48 hours after spray application. Total RNA was extracted from leaves using the RNeasy kit (Qiagen, Valencia, Calif.) according to manufacturer's instructions, which includes a DNase treatment. The cDNAs were synthesized by using oligo-dT primer and reverse transcription kit SuperScript III (Invitrogen, Carlsbad, Calif.) according to manufacturer's instructions. The real-time quantitative PCR was performed using a RotorGene 3000 PCR machine (Corbett, Australia) and QuantiTect SYBR Green PCR kit (Qiagen). The reaction conditions in real-time PCR were: an initial denaturation step at 95° C. for 15 min. followed by denaturation at 95° C. for 15 s, an alignment step for 30 s at 60° C. and an extension step for 30 s at 72° C. for 40 cycles. The analysis was carried out using the RotorGene 3000 software (Corbett, Australia) and five replicates were used for each sample. Experiments were repeated twice.

Where [9] appears, read: greenhouse, Citrus sinensis with HLB, 20 μM spray every 15 days, 6 months, FIG. 3A.

The record followed here is patent publication US10104889B2 (priority 2011, dated 2018).

Where two headings read alike, the source gives them in different places.

Turning to `C[C@@H]1CC[C@@]2(OC1)O[C@H]1C[C@H]3[C@@H]4CC[C@H]5CC(O)CC[C@]5(C)[C@H]4OC(=O)C[C@]3(C)[C@H]1[C@@H]2C` (stereo partly drawn) [brassinosteroid analogue, (25R)-3-hydroxy-C-homo-11-oxa-5-espirostan-12-one], in test [1], the “presence of bacteria in leaves by electron microscopy” value is “presence of bacteria was not observed”. Besides, the “effect on incidence of disease” value in test [2] and in test [6] was “marked effect in reducing the incidence of diseases” in each case. Further, the entries for the “percentage of mortality due to disease” value in test [2] and in test [6] were 9 percentage and 11 percentage, respectively. The “significant reduction in bacteria levels, from” value in test [3] is listed as “third months”. In addition, the “undetectable levels of bacteria reached from months” value in test [3] is 8 months. Moreover, the “protection of citrus plants without HLB against infection” value in test [4] was “protect them against infection from bacteria”. For the same molecule, in test [5], the “activation of new genes identified by SuperSAGE” value was “simultaneously activates genes related to hypersensitive response, salicylic acid and jasmonic acid/ethylene”. The “Absolute concentration of the bacterium after 6 months of treatment” value in test [7] (0.001 μM, spray every 15 days for 6 months) is on record as 522 Copies of the bacteria by reaction; in test [7] (0.01 μM, spray every 15 days for 6 months) it was 29 Copies of the bacteria by reaction; in test [7] (1 μM, spray every 15 days for 6 months) it was 1 Copies of the bacteria by reaction; in test [7] (5 μM, spray every 15 days for 6 months), 0 Copies of the bacteria by reaction; in test [7] (10 μM, spray every 15 days for 6 months), 0 Copies of the bacteria by reaction; in test [7] (20 μM, spray every 15 days for 6 months) it was 0 Copies of the bacteria by reaction. Further, the “Absolute concentration of the bacterium after 6 months of treatment” value in test [7] (40 μM, spray every 15 days for 6 months) is reported as 0 Copies of the bacteria by reaction; in test [7] (60 μM, spray every 15 days for 6 months), 0 Copies of the bacteria by reaction. Moreover, the “effect on bacteria levels during the evaluation period” value in test [7] is on record as “significant reduction in bacteria levels”. Besides, the “levels of bacteria, application two times a month and weekly compared with a single application per month” value in test [7] (1 μM, FIG. 6) was “significantly reduced levels of bacteria, more early”. Also, the bacteria levels entry in test [7] (concentrations of 0.01 and up to 60 μM, spray every 15 days for 6 months) is on record as “drastically reduced”. In addition, the “significant reduction in levels of bacteria, from” value in test [7] (setting [9]) was “second month”. Besides, the “undetectable levels of bacteria reached from month” value in test [7] (setting [9]) is recorded as 4 month. The “time of highest expression of the rest of the genes” value in test [8] (after application) was determined as 5 h. In test [8] (after application), the “time of highest level of expression of allene oxide synthase gene” value was 24 h. The “activation of all analyzed genes (chitinase, β-1,3-glucanase, glutathione peroxidase, phenylalanine-ammonia lyase, superoxide dismutase, allene oxide synthase)” value in test [8] (leaves 0-48 hours, FIG. 1) is recorded as “activated”.

In the case of `CC(C)[C@H](C)[C@@H](O)[C@H](O)[C@@H](C)[C@H]1CC[C@H]2[C@@H]3COC(=O)[C@H]4C[C@H](O)[C@H](O)C[C@]4(C)[C@H]3CC[C@]12C` [brassinolide, reference compound], the “effect on incidence of disease” value in test [2] and in test [6] was “marked effect in reducing the incidence of diseases” throughout. Besides, the “percentage of mortality due to disease” value came to 12 percentage in test [2] and 13 percentage in test [6]. Besides, in test [7], the “effect on bacteria levels during the evaluation period” value is “significant reduction in bacteria levels”.
